The subject of experiment [1] is untransformed MCF10A cell line. Description: Growth and apoptosis of untransformed MCF10A cells (IncuCyte). Format: cell-based, human. The following applies: 1 mM glucose, 25 µM.
Experiment [2] deals with glucose uptake by wild type yeast cells. Description: Zero-trans uptake of radioactive glucose in wild type yeast cells. Type of experiment: cell-based, S. cerevisiae. As to conditions: for IC50: radioactive glucose, 10 s, read-out: IC50 for inhibition of 2.5 mM glucose uptake. How it is done:
(§1) Zero-trans uptake of radioactively labeled [U-^14C]glucose, [U-^14C]fructose or [U-^14C]galactose by S. cerevisiae cells was determined in accordance with previous studies ([45], [75]). Cells were grown on different carbon sources depending on the experiment. For measuring glucose uptake activity in the tps1Δ and tps1Δ hxtΔ strains, cells were grown on YP medium containing 325 mM glycerol (measurement of 10 s). Typically, for compound characterization and kinetic studies in wild type and tps1Δ strains, cells were (pre)grown on Complete Synthetic medium supplemented with 110 mM galactose (measurement of 10 s). In the experiments on the influence of hexokinase activity on the sugar uptake rate, the measurement duration was shortened to 5 s and cells were always grown on YP medium containing 325 mM glycerol and 430 mM ethanol. After harvesting, cells were washed twice with ice-cold 25 mM MES-buffer pH 6, and resuspended in their respective medium without sugar to a final concentration of 45 mg (wet weight)/mL. The amount of added tracer was estimated to give a response close to at least 1000 counts per min in order to adequately counter background noise. Cells were first preincubated for 10 min at 30°C with the compound to acclimate the cells to the temperature and to allow adequate interaction with the compound prior to uptake. Next, hexose sugar was mixed with the cell suspension, which was then incubated at 30°C for 5 or 10 s, depending on the experiment, after which the cells were rapidly filtered over a glass microfiber filter (Whatman GF/C) and washed three times with ice-cold dH2O. The loaded filter was transferred to a scintillation vial containing 3 mL liquid scintillation cocktail (Ultima-Flo M, Perkin Elmer) and counted using the Hidex 300 SL. Three blank measurements per strain were typically included to account for background signal, for which the cells were first quenched before adding the radioactive label.

Experiment [3] relates to hexokinase. Description: Hexokinase activity in extracts of wild type yeast cells. Format: biochemical, S. cerevisiae. As to conditions: 50 µM; variable glucose / 5 mM ATP and variable ATP / 5 mM glucose. How it is done: In vitro hexokinase activity of yeast cells was determined as described previously ([44], [76]). As such, the yeast cells were first grown to exponential phase on Complete Synthetic medium supplemented with 110 mM galactose. The cells were harvested and washed with ice-cold 25 mM MES buffer pH 6. Subsequently, cells were resuspended in lysis buffer (50 mM HEPES pH 7, 150 mM NaCl, 2.5 mM MgCl2, 5% glycerol and 1% Triton X-100) containing protease inhibitor after which the yeast cells were mechanically lysed. After protein level determination, total protein concentration was diluted to 0.1 mg/mL in reaction buffer (50 mM HEPES pH 7, 150 mM NaCl, 2.5 mM MgCl2, 5% glycerol). For measuring activity, reaction buffer was supplemented with 1.07 mM NADP^+ and 10 U/mL Glu6P dehydrogenase (Sigma-Aldrich G7877). After temperature equilibration of the plate at 30°C, the reaction was started by adding both ATP and glucose to the reaction buffer. OD340 was measured using the Synergy H1 Hybrid reader and hexokinase activity was determined based on the linear increase of absorbance in the first 10-20 s.

Experiment [4] deals with HXK2 hxk1Δ glk1Δ yeast cells. Briefly: Sugar uptake in HXK2 hxk1Δ glk1Δ yeast cells. Format: cell-based, S. cerevisiae. How it is done:
as §1, with “Cells were first preincubated for 10 min at 30°C with the compound to acclimate the cells to the temperature and to allow adequate interaction with the compound prior to uptake. Next, hexose sugar was mixed with the cell suspension, which was then incubated at 30°C for 5 or 10 s, depending on the experiment, after which the cells were rapidly filtered over a glass microfiber filter (Whatman GF/C) and washed three times with ice-cold dH2O.” left out, “Three blank measurements per strain were typically included to account for background signal, for which the cells were first quenched before adding the radioactive label.” left out

Experiment [5] relates to yeast tps1Δ cells. Description: Glu6P and Fru1,6bisP accumulation in tps1Δ yeast cells after glucose addition. Format: cell-based, S. cerevisiae. As to conditions: compound added at -10 min. The procedure: For measuring metabolite levels, yeast cells were typically grown in Complete Synthetic medium. […] However, when comparing the effect of Warbicin ® compounds on metabolite profiles of wild type and tps1Δ strains, cells were grown on 110 mM galactose. When grown to exponential phase, cells were harvested by centrifugation and washed twice with ice-cold 25 mM 2-(N-Morpholino)ethanesulfonic acid (MES) buffer, pH 6. Cells were suspended in Complete Synthetic medium without sugar at a concentration of 75 mg (wet weight)/mL followed by a temperature equilibration at 30°C in a shaking water bath for 30 min. Depending on the experiment, a final concentration of 2.5 mM, 7.5 mM or 10 mM glucose was added to the cell suspension. Compounds were added 10 min prior to glucose addition. […]
Through endpoint measurement of the absorbance of NADH or NADPH at 340 nm, metabolite concentrations in the yeast cells were calculated by applying Lambert’s Law. Different metabolites were measured through the use of coupled enzymatic reactions. […] Depending on the measured metabolite, different co-factors and auxiliary enzymes were added. For measuring glucose-6-phosphate, 1.07 mM NADP^+ was added to the assay buffer after which the baseline absorbance was measured. […] After stabilization of the OD340 spectra, ATP concentrations were measured by additionally adding 10 mM MgCl2 and 0.5 mM glucose to the assay buffer. […]

Like-named read-outs stand apart in the source and are kept apart here.

On to `Cc1nc(SCC(=O)c2ccc3c(c2)NC(=O)CO3)c2c(-c3cccs3)csc2n1` [WBC-11C], for which the induction of apoptosis entry in experiment [1] is recorded as “induces apoptosis”.

Usually IC50 stands for the point on the concentration scale where inhibition reaches its midpoint. As usually defined, the Ki is a dissociation constant, usually derived from enzyme kinetics or from competition with a known ligand. As a reminder, the inhibition is how much of the control response was suppressed. Consider `Cc1nc(Sc2nnc3n2CCCCC3)c2c(-c3cccs3)csc2n1` [WBC-A], for which the “type of inhibition of glucose uptake (Lineweaver-Burk)” value in experiment [2] is given as “mixed type of inhibition”. The results for the IC50 in experiment [2] (Saccharomyces cerevisiae) and in experiment [2] were 17.1 µM and 19 µM, respectively. For the same molecule, the Ki in experiment [2] (read-out: Ki (Dixon plot) for glucose uptake) worked out at 9.04 µM. In addition, the “effect on in vitro hexokinase activity” value in experiment [3] is on record as “No significant effect”. For the same molecule, in experiment [4] (Saccharomyces cerevisiae, read-out: inhibition of fructose transport), the inhibition at 50 µM was over 75%. For the same molecule, the “1 mM glucose uptake rate” value in experiment [4] (strain expressing Hxk2) is on record as “strong decrease in glucose uptake rate”. Moreover, the “hyperaccumulation of Glu6P and Fru1,6bisP after addition of 2.5 mM glucose” value in experiment [5] is “concentration-dependent gradual drop in Glu6P and a more precipitous drop in Fru1,6bisP”.

Source of the values: article PMC11374660, “The novel family of Warbicin® compounds inhibits glucose uptake both in yeast and human cells and restrains cancer cell proliferation” (Frontiers in Oncology, 2024).
